Laboratory results as given in patent publication US7585893B2, “Anti-cancer composition comprising DMXAA or related compound” (Cancer Research Technology Limited, priority 2002, dated 2009).
Where “and” joins values, the source holds several entries; their conditions need not be identical. Equal values may be shown once. Read-outs that look alike come from different tables or passages of the source.

Assays:
[1] = oral; Zhao et al; cited from earlier work
tumour = conditions: Zhao et al, cited from earlier work
Colon 38 tumour = Colon 38 tumour growth delay, oral DMXAA (Experiments I and II); type: in vivo, C57B1/6 mice; conditions: for mice cured completely: 30+15+15 mg/kg orally at 0, 4, 8 h
Procedure: C57B1/6 mice from the Animal Resource Unit, University of Auckland, were bred and housed under conditions of constant temperature and humidity, with sterile bedding and food, according to institutional ethical guidelines. All mice were aged between 8 and 12 weeks.
DMXAA was synthesized as the sodium salt (Rewcastle et al (1990) Journal of National Cancer Institute 82:528-529). DMXAA sodium salt was dissolved in sterile water and was administered orally by gavage.
Colon 38 tumour fragments (˜1 mm^3) were implanted subcutaneously (s.c.) in the left flank of anaesthetized (sodium pentobarbital, 81 mg/kg) mice. The experiments were initiated when tumours were approximately 3-4 mm (approximately 20 mg mass) in diameter. Tumour-bearing mice were treated with drugs according to the administration schedule described before, and the tumours measured using calipers, three times weekly thereafter. Tumour volumes were calculated as O.52a^2b, where a and b are the minor and major axes of the tumour, respectively. For graphical representation the arithmetic means were calculated for each time point, counting cured tumours as zero volume.
Two groups of 5 mice were implanted with tumours. The treatment group received DMXAA according to the schedule shown, the control group received no DMXAA. The individual mice in each group were not marked, and so any one line of the spreadsheet data shown in Table 1 could be from any individual mouse of a particular group.
The data were normalised, to enable plotting of the average tumour growth beginning from a relative size of 1 (see FIG. 1).
This example was performed using four groups of mice. Group 1 (control, n=5) received no treatment. Group 2 (n=5) received two 15 mg/kg doses of DMXAA. Group 3 (n=5) received a single 30 mg/kg dose of DMXAA. Group 4 (n=6) received three doses of DMXAA in concentrations of 30+15+15 mg/kg. In this experiment tumours were all 14 mm^3 at the start of the experiment. Data were normalised by division by 14 to give size relative to initial size.
The tumour growth delay experiment was conducted using 2 drug regimes: untreated controls (n=5) and oral DMXAA (n=5) administered in 3 doses. The first dose (30 mg/kg), was administered at t=0 hours followed by two lower doses each of 15 mg/kg at t=4 hours and t=8 hours respectively. Tumour size was measured thrice weekly and the results normalised as described above. The results are shown in Table 1 (raw data), Table 2 (normalised data) and FIG. 1, Expt. I (plotted as a graph).
In this example, the tumour growth delay experiment was conducted using 4 drug regimes: untreated controls (Group 1, n=5); two 15 mg/kg doses of DMXAA separated by a 4 hour interval (Group 2, n=5); a single 30 mg/kg dose of DMXAA (Group 3, n=5); three doses of DMXAA in concentrations of 30+15+15 mg/kg administered at t=0, 4 and 8 hours respectively (Group 4, n=6). The 30 mg/kg dose is the maximum tolerated single dose Zhao et al (Cancer Chemother Pharmacol. 2002 January; 49(1):20-6). Tumour size was measured thrice weekly and the results normalised as described above. The results are shown in Table 3 (raw data), Table 4 (normalised data) and FIG. 1, Expt. II (plotted as a graph).

tumour blood flow = conditions: Phase I clinical trials; well-tolerated doses; cited from earlier work
[2] = tested on: HT29 human colon cancer cells; assay: HT29 human colon carcinoma xenograft, oral dosing (Experiment 3); type: in vivo; conditions: HT29 xenograft in nude mice; 28 mg/kg oral, or 28 + 15 + 15 mg/kg at 0, 4, 8 h
Procedure: Nude mice were implanted with 5×10^6 HT29 human colon cancer cells, subcutaneously. […] Tumours were then measured using callipers every 2-3 days and volumes calculated. Comparative tumour growth curves are plotted with respect to those at the onset of treatment (relative tumour volume).

Compound: Cc1ccc2c(=O)c3cccc(CC(=O)O)c3oc2c1C [DMXAA, 5,6-dimethylxanthenone-4-acetic acid]
- maximum tolerated single dose [1]: 30 mg/kg
- cures (tumour; intraperitoneal administration): 40%
- cures (tumour; single dose orally administered): no cures
- side effects of multiple dose strategy (Colon 38 tumour; 30+15+15 mg/kg orally): without the serious side effects
- mice cured completely (Colon 38 tumour; Expt I, within 24 days): 4/5
- Tumor volume (Colon 38 tumour; Expt I, 30+15+15 mg/kg orally at 4 h intervals, 0 day, individual mice, 15 mg/kg): 6.3 mm^3 and 18.8 mm^3 (2×) and 14.1 mm^3 (2×)
- Tumor volume (Colon 38 tumour; Expt II, 30 mg/kg orally single dose, 0 day): 14.0 mm^3
- tumour growth over time-course (Colon 38 tumour; Expt II, 2×15 mg/kg oral doses, 4 h interval): tumours continued to grow
- Tumor volume (Colon 38 tumour; Expt II, 15 − 15 mg/kg orally, 4 h interval, 0 day): 14.0 mm^3
- mice cured completely (Colon 38 tumour; Expt II, within 17 days): 6/6
- Tumor volume (Colon 38 tumour; Expt II, 30 − 16 − 15 mg/kg orally, 0 day): 14.0 mm^3
- Tumor volume (Colon 38 tumour; Expt II, 30 − 16 − 15 mg/kg orally, 17 day): 0.0 mm^3
- Normalised tumour size (relative to initial size) (Colon 38 tumour; Expt II, oral 30 mg/kg single dose, day 0): 1
- Normalised tumour size (relative to initial size) (Colon 38 tumour; Expt II, oral 15 − 15 mg/kg, day 0): 1
- Normalised tumour size (relative to initial size) (Colon 38 tumour; Expt II, oral 30 − 15 − 15 mg/kg, day 0): 1
- Normalised tumour size (relative to initial size) (Colon 38 tumour; Expt II, oral 30 − 15 − 15 mg/kg, day 17): 0
- tumour growth over time-course (Colon 38 tumour; Expt II, single 30 mg/kg oral dose): tumours continued to grow
- tumour blood flow (dynamic MRI) (tumour blood flow): significant reduction in tumour blood flow
- antitumour activity by the oral route [2]: induces antitumour activity
